The values below come from ChEMBL document CHEMBL1125168, “Antihypertensive activity of redox derivatives of tryptophan” (J Med Chem, 1990).

A short description of the data set: Second-order rate of Ferricyanide -mediated oxidation using spectrophotometric method. The class given is ADME.

Compound `CCCCCCCCOC(=O)C(Cc1c[nH]c2ccccc12)NC(=O)c1ccc[n+](C)c1` (centres undefined) gave a Ko of 7.61 M⁻¹ s⁻¹.
`COC(=O)C(Cc1c[nH]c2ccccc12)NC(=O)c1ccc[n+](C)c1` (centres undefined): the Ko came to 13.8 M⁻¹ s⁻¹.
The value for `CCOC(=O)C(Cc1c[nH]c2ccccc12)NC(=O)c1ccc[n+](C)c1` (centres undefined) was 13.5 M⁻¹ s⁻¹; that for `C[n+]1cccc(C(=O)NC(Cc2c[nH]c3ccccc23)C(=O)OC2CCCCC2)c1` (centres undefined) was 12.2 M⁻¹ s⁻¹.
